Values after ≈ are worked out from the molar mass of the structure shown. Values joined by “and” are separate entries in the source; they are usually repeats but may differ in a detail not shown here. Equal values may be shown once. Read-outs that look alike come from different tables or passages of the source.
Assays:
[1] = Intrinsic dissolution (USP dissolution apparatus 2, tablet in PTFE holder, UV at 266 nm); format: physicochemical; conditions: for average intrinsic dissolution rate / slope, average: average of samples 1-6, 0.01N HCl/methanol 1:1, 37° C.; for average intrinsic dissolution rate / slope, average / slope / intrinsic dissolution rate (IDR): 150 rpm; for slope, average: 0 to 60 min; for slope / intrinsic dissolution rate (IDR): single samples, 500 ml 0.01N HCl/methanol 1:1, 37° C.; for slope: slope calculated from 0 to 60 min; for intrinsic dissolution rate (IDR): tablet surface 0.5026 cm^2
Experimental: A Hanson Research SR6™ dissolution testing station equipped with a USP dissolution apparatus 2 as paddle and a poly(tetrafluoroethylene (PTFE) tablet holder was used. UV spectrometry was used to determine the concentration of TMC278 in solution. The UV analysis was carried out on an Agilent 8453™ spectrophotometer using a 2 ml cuvet. A single wavelength measurement at 266 nm was recorded with single component analysis (SCA), a single component measurement.
About 125 mg of the compound was weighed into a mould with a diameter of 0.8 cm. A tablet was made with a Speca press imposing a pressure of 1 ton for tabletting. The surface area of the tablet was 0.5026 cm^2. The tablet was adhered to the PTFE tablet holder.
21.8 mg of TMC278 was weighed into a volumetric flask of 25 ml. The product was dissolved in a 1:1.5 tetrahydrofuran/methanol mixture. A 1 ml aliquot was transferred into a 200 ml volumetric flask and diluted to the mark using 0.01N HCl. The concentration of the reference solution was […].
The tablet holders with the tablets were placed in a USP2 dissolution bath. The vessels contained 500 ml 0.01N HCl/methanol 1:1 and were thermostatically controlled at 37° C. The paddles were used with a rotation speed of 150 rpm (rounds per minute). A sample was withdrawn each 10 minutes and the concentration was determined with UV spectrometry. The slope was calculated on the measuring points between 0 and 60 minutes. The slope was expressed as mg %/minute. The intrinsic dissolution rate (IDR), expressed as mg/(cm^2×min), was calculated.

[2] = Solubility in buffer pH4, buffer pH2 and 0.01N HCl; format: physicochemical
wild type HIV = conditions: in words; described in WO 03/16306; cited from earlier work
[3] = system: drug and multidrug resistant HIV strains; conditions: in words; strains resistant to NNRTIs such as efavirenz, nevirapine, delavirdine; cited from earlier work

Row | Structure (SMILES) | average intrinsic dissolution rate [1] | slope, average [1] [mg %/minute] | intrinsic dissolution rates, compared to Polymorph II ([1]; in words) | slope [1] | intrinsic dissolution rate (IDR) [1] | Solubility ([2]; 0.01N HCl, pH 2.1) [mg/100 ml] | Solubility ([2]; Buffer pH4, pH 4.0) [mg/100 ml] | Solubility ([2]; buffer pH2, pH 2.1, aqueous buffer, Buffer pH2, pH 2.1, read-out: Solubility) [µg/mL] | solubility at lower pH, compared to Polymorph II ([2]; lower pH, in words) | average intrinsic dissolution rate ([1]; listed as polymorph II) | activity against wild type HIV (wild type HIV) | solubility in water ([2]; water, in words) | activity against drug and multidrug resistant HIV strains [3]
1 | Cc1cc(/C=C/C#N)cc(C)c1Nc1ccnc(Nc2ccc(C#N)cc2)n1 [TMC278 polymorph I, (E) 4-[[4-[[4-(2-cyanoethenyl)-2,6-dimethylphenyl]amino]-2-pyrimidinyl]amino]benzonitrile] | 0.3362 mg/(cm^2 × min) | 0.0338 | increased intrinsic dissolution rates | 0.0358 mg %/minute and 0.0353 mg %/minute and 0.0309 mg %/minute and 0.0347 mg %/minute and 0.0343 mg %/minute and 0.0319 mg %/minute | 0.3559 mg/(cm^2 × min) and 0.3508 mg/(cm^2 × min) and 0.3074 mg/(cm^2 × min) and 0.3447 mg/(cm^2 × min) and 0.3417 mg/(cm^2 × min) and 0.3169 mg/(cm^2 × min) | 4.1 | 0.07 | 6.4 (≈ 17.5 µM) | increased solubility at lower pH | – | – | – | –
2 | Cc1cc(/C=C/C#N)cc(C)c1Nc1ccnc(Nc2ccc(C#N)cc2)n1 [TMC278 polymorph II, 4-[[4-[[4-(2-cyanoethenyl)-2,6-dimethylphenyl]-amino]-2-pyrimidinyl]-amino-]-benzonitrile, reference compound] | 0.2886 mg/(cm^2 × min) | 0.0290 | – | 0.0283 mg %/minute and 0.0281 mg %/minute and 0.0290 mg %/minute and 0.0305 mg %/minute and 0.0288 mg %/minute and 0.0294 mg %/minute | 0.2819 mg/(cm^2 × min) and 0.2795 mg/(cm^2 × min) and 0.2886 mg/(cm^2 × min) and 0.3035 mg/(cm^2 × min) and 0.2861 mg/(cm^2 × min) and 0.2921 mg/(cm^2 × min) | 1.9 | 0.03 | – | – | 0.2886 mg/(cm^2 × min) | – | – | –
3 | Cc1cc(/C=C/C#N)cc(C)c1Nc1ccnc(Nc2ccc(C#N)cc2)n1 [TMC278, 4-[[4-[[4-(2-cyanoethenyl)-2,6-dimethylphenyl]-amino]-2-pyrimidinyl]-amino-]-benzonitrile] | – | – | – | – | – | – | – | – | – | – | pronounced activity | relatively low solubility in water | shows activity

— patent US8426434B2, “Crystalline form of 4-[[4-[[4-(2-Cyanoethenyl)-2,6-dimethylphenyl]-amino]-2-pyrimidinyl]amino]benzonitrile” (Tibotec Pharmaceuticals Ltd., priority 2007, dated 2013)
